In ChEMBL document CHEMBL1649268, “Comparative in vitro activity profile of oritavancin against recent gram-positive clinical isolates” (2009):
In brackets after ≈: the same amount, converted by molar mass.

Tests used:
Type in all cases: functional
[1] = test system: Enterococcus faecium; assay: Antimicrobial activity against vancomycin-nonsusceptible Enterococcus faecium clinical isolates by broth microdilution method
[2] = test system: Enterococcus faecalis; assay: Antimicrobial activity against vancomycin-susceptible Enterococcus faecalis clinical isolates assessed as percent susceptible isolates by broth microdilution method
[3] = test system: Staphylococcus aureus; assay: Antimicrobial activity against Staphylococcus aureus clinical isolates assessed as percent susceptible isolates by broth microdilution method
[4] = test system: Enterococcus faecalis; assay: Antimicrobial activity against Enterococcus faecalis clinical isolates assessed as percent susceptible isolates by broth microdilution method
[5] = test system: Staphylococcus aureus; assay: Antimicrobial activity against oxacillin-susceptible Staphylococcus aureus clinical isolates by broth microdilution method
[6] = test system: Enterococcus faecium; assay: Antimicrobial activity against Enterococcus faecium expressing VanA gene clinical isolates assessed as percent susceptible isolates by broth microdilution method
[7] = test system: Enterococcus faecium; assay: Antimicrobial activity against Enterococcus faecium clinical isolates assessed as percent susceptible isolates by broth microdilution method
[8] = test system: Enterococcus faecalis; assay: Antimicrobial activity against vancomycin-nonsusceptible Enterococcus faecalis clinical isolates by broth microdilution method
[9] = test system: Staphylococcus haemolyticus; assay: Antimicrobial activity against Staphylococcus haemolyticus clinical isolates by broth microdilution method
[10] = test system: Enterococcus faecium; assay: Antimicrobial activity against vancomycin-nonsusceptible Enterococcus faecium clinical isolates assessed as percent susceptible isolates by broth microdilution method
[11] = test system: Enterococcus faecium; assay: Antimicrobial activity against Enterococcus faecium expressing VanA gene clinical isolates by broth microdilution method
[12] = test system: Enterococcus faecalis; assay: Antimicrobial activity against Enterococcus faecalis expressing VanB gene clinical isolates assessed as percent susceptible isolates by broth microdilution method
[13] = test system: Staphylococcus aureus; assay: Antimicrobial activity against Staphylococcus aureus clinical isolates by broth microdilution method
[14] = test system: Enterococcus faecalis; assay: Antimicrobial activity against Enterococcus faecalis expressing VanB gene clinical isolates by broth microdilution method
[15] = test system: Staphylococcus epidermidis; assay: Antimicrobial activity against oxacillin-resistant Staphylococcus epidermidis clinical isolates by broth microdilution method
[16] = test system: Staphylococcus aureus; assay: Antimicrobial activity against oxacillin-susceptible Staphylococcus aureus clinical isolates assessed as percent susceptible isolates by broth microdilution method
[17] = test system: Staphylococcus epidermidis; assay: Antimicrobial activity against oxacillin-susceptible Staphylococcus epidermidis clinical isolates assessed as percent susceptible isolates by broth microdilution method
[18] = test system: Enterococcus faecalis; assay: Antimicrobial activity against Enterococcus faecalis clinical isolates by broth microdilution method
[19] = test system: Enterococcus faecium; assay: Antimicrobial activity against vancomycin-susceptible Enterococcus faecium clinical isolates assessed as percent susceptible isolates by broth microdilution method
[20] = test system: Staphylococcus haemolyticus; assay: Antimicrobial activity against oxacillin-resistant Staphylococcus haemolyticus clinical isolates by broth microdilution method
[21] = test system: Staphylococcus haemolyticus; assay: Antimicrobial activity against Staphylococcus haemolyticus clinical isolates assessed as percent susceptible isolates by broth microdilution method
[22] = test system: Enterococcus faecalis; assay: Antimicrobial activity against vancomycin-nonsusceptible Enterococcus faecalis clinical isolates assessed as percent susceptible isolates by broth microdilution method
[23] = test system: Staphylococcus haemolyticus; assay: Antimicrobial activity against oxacillin-susceptible Staphylococcus haemolyticus clinical isolates assessed as percent susceptible isolates by broth microdilution method
[24] = test system: Staphylococcus epidermidis; assay: Antimicrobial activity against Staphylococcus epidermidis clinical isolates by broth microdilution method
[25] = test system: Enterococcus faecalis; assay: Antimicrobial activity against Enterococcus faecalis expressing VanA gene clinical isolates assessed as percent susceptible isolates by broth microdilution method
[26] = test system: Staphylococcus epidermidis; assay: Antimicrobial activity against Staphylococcus epidermidis clinical isolates assessed as percent susceptible isolates by broth microdilution method
[27] = test system: Enterococcus faecium; assay: Antimicrobial activity against Enterococcus faecium expressing VanB gene clinical isolates assessed as percent susceptible isolates by broth microdilution method
[28] = test system: Staphylococcus haemolyticus; assay: Antimicrobial activity against oxacillin-susceptible Staphylococcus haemolyticus clinical isolates by broth microdilution method
[29] = test system: Staphylococcus aureus; assay: Antimicrobial activity against oxacillin-resistant Staphylococcus aureus clinical isolates by broth microdilution method
[30] = test system: Enterococcus faecium; assay: Antimicrobial activity against Enterococcus faecium expressing VanB gene clinical isolates by broth microdilution method
[31] = test system: Enterococcus faecalis; assay: Antimicrobial activity against vancomycin-susceptible Enterococcus faecalis clinical isolates by broth microdilution method
[32] = test system: Enterococcus faecium; assay: Antimicrobial activity against Enterococcus faecium clinical isolates by broth microdilution method
[33] = test system: Enterococcus faecalis; assay: Antimicrobial activity against Enterococcus faecalis expressing VanA gene clinical isolates by broth microdilution method
[34] = test system: Enterococcus faecium; assay: Antimicrobial activity against vancomycin-susceptible Enterococcus faecium clinical isolates by broth microdilution method
[35] = test system: Staphylococcus epidermidis; assay: Antimicrobial activity against oxacillin-susceptible Staphylococcus epidermidis clinical isolates by broth microdilution method
[36] = test system: Staphylococcus epidermidis; assay: Antimicrobial activity against oxacillin-resistant Staphylococcus epidermidis clinical isolates assessed as percent susceptible isolates by broth microdilution method

Work on `CCCCCCCCCC(=O)N[C@@H](Cc1c[nH]c2ccccc12)C(=O)N[C@H](CC(N)=O)C(=O)N[C@@H](CC(=O)O)C(=O)N[C@@H]1C(=O)NCC(=O)N[C@@H](CCCN)C(=O)N[C@@H](CC(=O)O)C(=O)N[C@H](C)C(=O)N[C@@H](CC(=O)O)C(=O)NCC(=O)N[C@H](CO)C(=O)N[C@@H]([C@H](C)CC(=O)O)C(=O)N[C@@H](CC(=O)c2ccccc2N)C(=O)O[C@@H]1C` yielded an MIC90 [1] of 4 µg/mL (≈ 2.47 µM), an Activity [2] of 99.9% and an Activity [3] of 99.9%. For the same compound, the Activity [4] was 99.9%, the MIC90 [5] was 0.5 µg/mL (≈ 0.309 µM) and the Activity [6] was 98.8%. It also gave an Activity [7] of 98.4%, an MIC90 [8] of 2 µg/mL (≈ 1.23 µM) and an MIC90 [9] of 0.5 µg/mL (≈ 0.309 µM). For the same compound, the Activity [10] was 98.5%, the MIC90 [11] was 4 µg/mL (≈ 2.47 µM) and the Activity [12] was 100%. The MIC90 [13] was 0.5 µg/mL (≈ 0.309 µM), the MIC90 [14] was 2 µg/mL (≈ 1.23 µM) and the MIC90 [15] was 0.5 µg/mL (≈ 0.309 µM). The Activity [16] was 99.9%, the Activity [17] was 100% and the MIC90 [18] was 2 µg/mL (≈ 1.23 µM). The Activity [19] was 98.3%, the MIC90 [20] was 0.5 µg/mL (≈ 0.309 µM) and the Activity [21] was 100%. It also gave an Activity [22] of 98.9%, an Activity [23] of 100% and an MIC90 [24] of 0.5 µg/mL (≈ 0.309 µM). For the same compound, the Activity [25] was 98.5%, the Activity [26] was 99.9% and the Activity [27] was 93.1%. The MIC90 [28] was 0.5 µg/mL (≈ 0.309 µM), the MIC90 [29] was 0.5 µg/mL (≈ 0.309 µM) and the MIC90 [30] was 4 µg/mL (≈ 2.47 µM). For the same compound, the MIC90 [31] was 2 µg/mL (≈ 1.23 µM), the MIC90 [32] was 4 µg/mL (≈ 2.47 µM) and the MIC90 [33] was 2 µg/mL (≈ 1.23 µM). For the same compound, the MIC90 [34] was 4 µg/mL (≈ 2.47 µM), the MIC90 [35] was 0.5 µg/mL (≈ 0.309 µM) and the Activity [36] was 99.8%.
